Measurements from patent US5563156A, “Thrombin inhibitors” (Merrell Pharmaceuticals Inc., priority 1991, dated 1996).

Assays:
Assay type in all cases: biochemical
[1] = target: HUMAN LUNG TRYPTASE; experiment: In vitro inhibition of human lung tryptase, rate constants by progress curve analysis; details: nonlinear regression (ENZFITTER)
Procedure: Using standard in vitro methodology for determining inhibitory activity of tryptase (Journal of Biological Chemistry, Vol. 261, Jun. 5, pp. 7322-7379, 1986), the following results have been obtained:
^a Rate constants were determined by progress curve analysis using a
nonlinear regression program (ENZFITTER)

[2] = test system: human plasma; experiment: Anticoagulant effect in human plasma, thrombin time (TT)
Text: (§1) Anticoagulant data may be represented as follows:

[3] = test system: human plasma; experiment: Anticoagulant effect in human plasma, activated partial thromboplastin time (aPTT)
Text: as §1

Row | Compound | Ki [1] [nM] | koff [1] [s⁻¹] | kon [1] [M⁻¹ s⁻¹] | ID2 TT (amount required for doubling the clotting time) [2] [µM] | ID2 a PTT (amount required for doubling the clotting time) [3] [µM]
1 | Cl.Cl.N=C(N)NCCCC(NC(=O)[C@@H]1CCCN1C(=O)[C@H]1Cc2ccccc2CN1)C(=O)C(F)(F)C(F)(F)F.O (stereo partly drawn) [D-3-TIC--Pro--Arg--CF2 CF3, L-Prolinamide, N-[2-[3-[(aminoiminomethyl)amino]propyl]-3,3,4,4,4-pentafluoro-2-oxobutyl]-1-D-[(1,2,3,4-tetrahydro-3-isoquinolinyl)carbonyl]-, dihydrochloride, hydrate] | 75 | 0.00034 | 4700 ± 200 |  | 
2 | CC(=O)O.F.N=C(N)NCCCC(NC(=O)[C@@H]1CCCN1C(=O)[C@H](N)Cc1ccccc1)C(=O)C(F)(F)F.O (stereo partly drawn) [D-Phe--Pro--Arg--CF3, L-Prolinamide, N-D-phenylalanyl-N-[1-[3-[(amino]iminomethyl)amino]propyl]-3,3,3-trifluoro-2-oxopropyl]-, hydrofluoride, acetate, hydrate] | 500 |  |  |  | 
3 | CC(=O)O.F.N=C(N)NCCCC(NC(=O)[C@@H]1CCCN1C(=O)[C@H](N)Cc1ccccc1)C(=O)C(F)(F)F.O (stereo partly drawn) [D-Phe--Pro--Arg--CF3] |  | 0.00015 | 290 ± 20 | 43 | 148
4 | L-Prolinamide, N-methyl-D-phenylalanyl-N-[1-[3-[(aminoiminomethyl) amino]propyl]-3,3,3-trifluoro-2-oxopropyl]-, dihydrochloride, hydrate [D-CH3 Phe--Pro--Arg--CF3] | 80 | 1.5e-05 | 200 ± 10 | 108 | 218
